How the values were obtained:
[1] = biological target: T1, CrabTag protein domain (CRABP2) (Homo sapiens, UniProt P29373); experiment: Quantification of reaction kinetics for CRABP2 (CrabTag) covalent modification, fluorescent SDS-PAGE; assay type: biochemical
T1 construct: made in house; host or cells: E. coli T7 SHuffle Express
T1 sequence (P29373 with tags, fused parts or gaps): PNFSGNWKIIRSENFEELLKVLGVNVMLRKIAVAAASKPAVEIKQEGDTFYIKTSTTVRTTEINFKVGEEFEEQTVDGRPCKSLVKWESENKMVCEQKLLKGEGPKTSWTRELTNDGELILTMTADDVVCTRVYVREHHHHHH
Protocol: The present disclosure provides a method for synthesizing linker 11, which includes a fluorophore to characterize the kinetics for reaction of the covalent inhibitor and CrabTag, as shown in FIG. 10A. The inventors have run parallel reactions that varies the concentration of the linker (2, 5, 10, 20, 40, 65, and 100 μM) at a constant concentration of CrabTag (1 μM) and stops the reactions using Laemmli reducing buffer at times ranging from 0 to 120 seconds, as shown in FIG. 10B. […] The inventors have separated the reaction products with SDS-PAGE and quantitated the mean fluorescence intensity of protein bands that corresponded to the adduct with ImageJ. […]
The inventors synthesized linker 11, which included a fluorophore to characterize the kinetics for reaction of the covalent inhibitor and CrabTag as shown in FIG. 10A The inventors ran parallel reactions that varied the concentration of the linker (2, 5, 10, 20, 40, 65, and 100 μM) at a constant concentration of CrabTag (1 μM) and stopped the reactions using Laemmli reducing buffer at times ranging from 0 to 120 seconds as shown in FIG. 10B. […] The inventors separated the reaction products with SDS-PAGE and quantitated the mean fluorescence intensity of protein bands that corresponded to the adduct with ImageJ. […]

[2] = biological target: T1, CrabTag protein domain (CRABP2); experiment: Stability of the covalent CrabTag-linker adduct over two weeks, fluorescent SDS-PAGE; assay type: physicochemical
CrabTag (CRABP2) = biological target: T2, CrabTag (CRABP2) (Homo sapiens, UniProt P29373); experiment: Intact protein ESI-MS of CrabTag-inhibitor complexes; assay type: binding; conditions: CrabTag 1 μM, inhibitor 5 μM, 5 minutes
T2 construct: made in house; host or cells: E. coli T7 SHuffle Express
T2 sequence (P29373 2-138): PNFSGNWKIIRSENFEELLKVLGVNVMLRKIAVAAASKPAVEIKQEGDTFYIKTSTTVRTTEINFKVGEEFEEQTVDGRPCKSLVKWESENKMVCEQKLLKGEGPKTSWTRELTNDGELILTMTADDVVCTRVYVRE
Protocol: FIG. 3 illustrates ESI-MS deconvoluted spectra with expected and observed molecular weights for CrabTag with a N-terminal Histag. Top: Purified CrabTag protein with the N-terminal histag and TEV protease recognition sequence (R, Black). Bottom: Adduct from reaction of R (0.1 nmol, 1 μM) with an inhibitor of the disclosure having a structure according to Formula 10 (5 eq., 5 μM) (Red). The reaction occurred in 100 μL of 1×PBS for 5 minutes before being stopped by addition of formic acid in preparation for ESI-MS.
FIG. 4 illustrates intact protein ESI-MS for CrabTag-inhibitor complexes. Reactions of C-terminal Histag R (1 μM, 1 equivalent) with either an inhibitor of the disclosure having a structure according to Formula 10 (5 μM, 5 equivalents) or an inhibitor of the disclosure having a structure according to Formula 11 (5 μM, 5 equivalents) occurred for 5 minutes before being stopped with formic acid.
Megamolecules were prepared for LC-MS analysis and evaluation using ESI-MS. Reaction time points were taken by quenching the sample with 0.1% formic acid. The preparation involved the desalting and dilution of the multi-protein assembly to 1 μM in nuclease free water. […] Spectra data were analyzed with Agilent MassHunter Qualitative Analysis software to reveal m/z data. […]

CRABP2 = biological target: T3, CRABP2 (Homo sapiens, UniProt P29373); experiment: X-ray crystal structure of the CRABP2-10 covalent complex; assay type: binding; conditions: 1.8 Å structure
T3 construct: His6 (N); made in house; host or cells: E. coli T7 SHuffle Express
T3 sequence (P29373 with tags, fused parts or gaps): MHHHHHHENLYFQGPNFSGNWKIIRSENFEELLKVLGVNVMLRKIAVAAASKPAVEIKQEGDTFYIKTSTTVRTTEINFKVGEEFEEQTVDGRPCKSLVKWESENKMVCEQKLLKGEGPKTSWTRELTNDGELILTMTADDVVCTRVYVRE
Protocol: CRABP2 protein (1000 nmol, 100 μM) was reacted with inhibitor 10 (500 μM, 5 equivalents) in PBS for about 1-50 hours, about 6-20 hours, about 10-18 hours, about 12-16 hours, or about 16 hours. The protein-inhibitor adduct was then purified using SEC and the fractions containing the adduct were pooled, dialyzed, and concentrated to 12 mg/mL (1.275 mL total) using a Centrifugal Filter Unit. […]
Data Processing, Structure Determination and Model Refinement. […] Diffraction data were measured at the Life Sciences Collaborative Access beamlines at Sector 21 of the Advanced Photon Source at Argonne National Laboratory, indexed, integrated and scaled with HKL2000.^4 All subsequent work was conducted using the CCP4 suite of programs.^5 The space group and unit cell parameters were confirmed with Pointless.^6 The structure was determined by molecular replacement with PhaserMR, using a single monomer of Human Cellular Retinoic Acid Binding Protein II (CRABPII) (PDB: 6HKR) with ligands and water molecules removed as the initial phasing model. […]

[3] = system: fusion protein containing SnapTag and cutinase domains (CS); experiment: Cross-reactivity of SnapTag and cutinase protein domains with the fluorescent CrabTag inhibitor, SDS-PAGE; assay type: biochemical; conditions: CS 10 μM, linker 1 equiv., 25° C. in PBS; CrabTag protein added next day
From the text: FIG. 18A illustrates orthogonality of enzyme-inhibitor pairs in the megamolecule assembly toolbox. A Coomassie stain with brightfield view of SDS-PAGE. Lane 1: CRABP2 (R) protein domain (MW, −16 kDa). Lane 2: Reaction of CRABP2 with fluorescent linker 11. Lane 3: Cutinase-SnapTag (CS) fusion protein (MW, −45 kDa). Lane 4: CS with the CrabTag fluorescent inhibitor. Lane 5: CS with the di-cutinase PEG11 linker to yield a di-CS megamolecule (MW, −90 kDa). Lane 6: CS with the di-SnapTag PEG11 linker to yield a di-CS megamolecule (MW, −90 kDa). Lanes 7-8: CS was first mixed with the CrabTag fluorescent inhibitor for two hours. Afterwards, the di-cutinase PEG11 or the di-SnapTag PEG11 linker was added, forming the di-CS megamolecule (MW, −90 kDa). The next day, the R protein was added to form the fluorescent band shown in the fluorescent SDS-PAGE. Lanes 9-10: R was first mixed with either the di-cutinase PEG11 or the di-SnapTag PEG11 linker for two hours, followed by the addition of the CS fusion protein to form the di-CS megamolecule (MW, −90 kDa). The following day, the fluorescent CrabTag linker was added to form the fluorescent band shown in the fluorescent SDS-PAGE. […]
The orthogonality of the CrabTag enzyme-inhibitor system was examined against our existing two chemistries, cutinase and SnapTag. […] All reactions were imaged by SDS-PAGE using both fluorescence and Coomassie stain.

Structure (SMILES) | effective rate constant of the inhibition reaction ([1]; CrabTag inhibition reaction) | enzyme-inhibitor complex stable (bound) ([2]; room temperature, over two weeks) [%] | adduct stoichiometry by intact mass spectrometry (CrabTag (CRABP2)) | residue covalently modified in crystal structure (CRABP2) | second order rate constant for the covalent modification reaction, keff ([1]; CrabTag 1 μM, linker 2-100 μM, times 0 to 120 seconds, ratio of ki and KI) | protein domains retaining covalent occupancy of the linker (normalized covalent occupancy) ([2]; 1 μM in PBS, 25° C. (room temperature), after two weeks) | reactivity of the CrabTag linker after incubation with CS fusion protein [3]
CC1(C)CCN(C(=O)CCC(=O)O)c2ccc(C#Cc3ccc(OS(=O)(=O)F)cc3)cc21 [inhibitor 10, 4-(6-((4-((fluorosulfonyl)oxy)phenyl)ethynyl)-4,4-dimethyl-3,4-dihydroquinolin-1(2H)-yl)-4-oxobutanoic acid] | approximately 3,600 M^−1s^−1 | > 95 | monomeric adducts with only one modification | selectively modifies Tyr135 |  |  | 
CC1(C)CCN(C(=O)CCC(=O)NCCOCCOCCOCCOCCOCCOCCOCCOCCOCCOCCOCCNC(=O)CCCCCNC(=O)c2ccc3c(c2)C(=O)OC32c3ccc(O)cc3Oc3cc(O)ccc32)c2ccc(C#Cc3ccc(OS(=O)(=O)F)cc3)cc21 [linker 11, Bi-EG(11)-(CrabTag Ligand, Fluorescein)] |  |  | monomeric adducts with only one modification |  | (3.6±0.5)×10^3 M^−1s^−1 | over 95% | maintained selective reactivity with the CrabTag enzyme

From patent US20250326723A1, “Development of an Enzyme-Inhibitor Reaction Using Cellular Retinoic Acid Binding Protein II for One-Pot Megamolecule Assembly” (NORTHWESTERN UNIVERSITY, priority 2021, published 2025)
